{"source": "ChEMBL document CHEMBL4354827", "about": "“Discovery of Novel, Potent, Brain-Permeable, and Orally Efficacious Positive Allosteric Modulator of α7 Nicotinic Acetylcholine Receptor [4-(5-(4-Chlorophenyl)-4-methyl-2-propionylthiophen-3-yl)benzenesulfonamide]: Structure-Activity Relationship and Preclinical Characterization” (J Med Chem, 2020)", "key": {"[1]": {"system": "Rattus norvegicus", "assay": "Improvement in social recognition scopolamine-induced Sprague-Dawley rat model of amnesia assessed as increase in reduction in social investigation time at 0.05 mg/kg, po for 7 days measured after 24 hrs (Rvb =6.59%)", "type": "functional", "design": "scale not given: the % may be the effect or the level left"}, "[2]": {"assay": "Drug concentration in Wistar rat plasma at 10 mg/kg, po after 24 hrs by LC-MS/MS analysis", "type": "ADME, organism-based"}, "[3]": {"assay": "AUC(0 to infinity) in human at 7.5 to 100 mg", "type": "ADME"}, "[4]": {"assay": "Metabolic stability in dog liver microsomes assessed as compound remaining at 1 uM preincubated for 5 mins followed by NADPH addition and measured after 30 mins by LC-MS/MS analysis", "type": "ADME, Canis lupus familiaris, Microsome", "details": "read-out: Stability"}, "[5]": {"system": "Rattus norvegicus", "assay": "Memory enhancement effect in scopolamine-induced Wistar rat model of amnesia assessed as exploration time for familiar object in retention trial at 0.5 mg/kg, po for 7 days and measured on day 8 by novel object recognition test (reference value: 8.59 sec)", "type": "functional"}, "[6]": {"system": "Rattus norvegicus", "assay": "Memory enhancement effect in time-delay induced Wistar rat model of amnesia assessed as exploration time for object1 at 1 mg/kg, po administered as single dose after acquisition trial by novel object recognition test (reference value: 19.09 sec)", "type": "functional"}, "[7]": {"assay": "AUClast in Beagle dog at 1 mg/kg, iv after 0.083 to 144 hrs by LC-MS/MS analysis", "type": "ADME, organism-based, Canis lupus familiaris", "design": "dose 1 mg/kg, time 0.083-144 hr, route intravenous", "details": "in vivo"}, "[8]": {"assay": "Protein binding in dog plasma assessed as unbound fraction at 5 uM incubated for 16 hrs under shaking condition by LC/MS/MS based rapid equilibrium dialysis method", "type": "ADME, cell-free, Canis lupus familiaris"}, "[9]": {"system": "Rattus norvegicus", "assay": "Memory enhancement effect in scopolamine-induced Wistar rat model of amnesia assessed as increase in discrimination index at 0.05 mg/kg, po for 7 days and measured on day 8 by novel object recognition test (reference value: 0.21)", "type": "functional"}, "[10]": {"system": "Rattus norvegicus", "assay": "Memory enhancement effect in scopolamine-induced Wistar rat model of amnesia assessed as increase in discrimination index at 0.5 mg/kg, po for 7 days and measured on day 8 by novel object recognition test (reference value: 0.21)", "type": "functional"}, "[11]": {"system": "Rattus norvegicus", "assay": "Improvement in social recognition scopolamine-induced Sprague-Dawley rat model of amnesia assessed as reduction in recognition index 3 mg/kg, po administered as single dose prior to 1 hr training and measured after 30 mins (reference value: 0.9)", "type": "functional"}, "[12]": {"assay": "Drug metabolism in rat liver microsomes assessed as metabolic rate at 1 uM preincubated for 5 mins followed by NADPH addition after 30 mins by LC-MS/MS analysis", "type": "ADME, Microsome", "details": "0.5 h"}, "[13]": {"assay": "Unbound brain-to-plasma concentration ratio in Wistar rat at 10 mg/kg, po after 1 hr by LC-MS/MS analysis", "type": "ADME, organism-based", "details": "read-out: K(p,uu,brain)"}, "[14]": {"molecular_target": "Neuronal acetylcholine receptor subunit alpha-7 (Homo sapiens, UniProt P36544)", "sequence (P36544 whole entry)": "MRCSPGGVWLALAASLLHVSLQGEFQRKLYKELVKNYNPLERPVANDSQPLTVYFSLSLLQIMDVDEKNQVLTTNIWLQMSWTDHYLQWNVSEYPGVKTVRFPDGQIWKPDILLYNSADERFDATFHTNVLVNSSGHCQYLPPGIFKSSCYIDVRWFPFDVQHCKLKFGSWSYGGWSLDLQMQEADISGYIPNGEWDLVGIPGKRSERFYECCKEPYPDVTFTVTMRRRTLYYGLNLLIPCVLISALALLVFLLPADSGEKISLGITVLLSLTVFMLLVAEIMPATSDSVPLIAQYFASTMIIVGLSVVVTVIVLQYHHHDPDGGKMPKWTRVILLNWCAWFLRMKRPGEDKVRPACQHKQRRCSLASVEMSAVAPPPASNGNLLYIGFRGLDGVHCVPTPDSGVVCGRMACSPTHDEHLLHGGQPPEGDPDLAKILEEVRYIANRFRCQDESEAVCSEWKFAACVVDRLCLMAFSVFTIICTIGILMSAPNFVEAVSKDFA", "assay": "Positive allosteric modulatory activity against alpha7 nAChR in human IMR-32 cells assessed as potentiation of PNU-282987-induced Ca2+ […] at 1 uM by FLIPR assay relative to control", "type": "cell-based"}, "[15]": {"system": "Rattus norvegicus", "assay": "Memory enhancement effect in scopolamine-induced Wistar rat model of amnesia assessed as exploration time for object2 in acquisition trial at 0.15 mg/kg, po for 7 days and measured on day 8 by novel object recognition test (reference value: 15.63 sec)", "type": "functional"}, "[16]": {"assay": "Cmax in human at 7.5 to 100 mg after 1 to 2.5 hrs", "type": "ADME", "details": "in vivo"}, "[17]": {"system": "Rattus norvegicus", "assay": "Memory enhancement effect in time-delay induced Wistar rat model of amnesia assessed as exploration time for object2 at 3 mg/kg, po administered as single dose after acquisition trial by novel object recognition test (reference value: 21.07 sec)", "type": "functional"}, "[18]": {"assay": "Half life in Wistar rat at 10 mg/kg, po after 0.25 to 144 hrs by LC-MS/MS analysis", "type": "ADME, organism-based", "details": "in vivo"}, "[19]": {"system": "Rattus norvegicus", "assay": "Improvement in social recognition scopolamine-induced Sprague-Dawley rat model of amnesia assessed as increase in reduction in social investigation time at 0.15 mg/kg, po for 7 days measured after 24 hrs (Rvb =6.59%)", "type": "functional", "design": "scale not given: the % may be the effect or the level left"}, "[20]": {"assay": "Drug metabolism in human pooled liver microsomes assessed as metabolic rate at 1 uM preincubated for 5 mins followed by NADPH addition after 30 mins by LC-MS/MS analysis", "type": "ADME, Microsome", "details": "0.5 h"}, "[21]": {"system": "Rattus norvegicus", "assay": "Improvement in social recognition scopolamine-induced Sprague-Dawley rat model of amnesia assessed as reduction in recognition index at 0.05 mg/kg, po for 7 days measured after 24 hrs (reference value: 0.93)", "type": "functional"}, "[22]": {"system": "Rattus norvegicus", "assay": "Improvement in social recognition time delay-induced Sprague-Dawley rat model of amnesia assessed as increase in reduction in social investigation time at 3 mg/kg, po administered as single dose prior to 1 hr training and measured after 30 mins (reference value: 0.39%)", "type": "functional", "design": "scale not given: the % may be the effect or the level left"}, "[23]": {"assay": "Half life in BALB/c mouse at 10 mg/kg, po after 0.25 to 144 hrs by LC-MS/MS analysis", "type": "ADME, organism-based", "details": "in vivo"}, "[24]": {"assay": "Brain to plasma permeability coefficient, Kp in Wistar rat at 10 mg/kg, po after 1 hr by LC-MS/MS analysis", "type": "ADME, organism-based"}, "[25]": {"system": "Rattus norvegicus", "assay": "Memory enhancement effect in scopolamine-induced Wistar rat model of amnesia assessed as exploration time for novel object in retention trial at 0.15 mg/kg, po for 7 days and measured on day 8 by novel object recognition test (reference value: 12.09 sec)", "type": "functional"}, "[26]": {"system": "Rattus norvegicus", "assay": "Memory enhancement effect in time-delay induced Wistar rat model of amnesia assessed as exploration time for object2 in acquisition trial at 0.5 mg/kg, po for 7 days and measured on day 8 by novel object recognition test (reference value: 11.76 sec)", "type": "functional"}, "[27]": {"assay": "Cmax in Wistar rat plasma at 10 mg/kg, po after 1 to 144 hrs by LC-MS/MS analysis", "type": "ADME, organism-based", "design": "dose 10 mg/kg, route oral"}, "[28]": {"system": "Rattus norvegicus", "assay": "Memory enhancement effect in time-delay induced Wistar rat model of amnesia assessed as increase in novel object discrimination at 1 mg/kg, po administered as single dose after acquisition trial by novel object recognition test (reference value: 0.08)", "type": "functional"}, "[29]": {"assay": "Drug level in scopolamine-induced Sprague-Dawley rat brain at 0.5 mg/kg, po for 7 days", "type": "ADME, organism-based", "details": "read-out: Drug uptake"}, "[30]": {"assay": "Drug level in scopolamine-induced Sprague-Dawley rat brain at 0.05 mg/kg, po for 7 days", "type": "ADME, organism-based", "details": "read-out: Drug uptake"}, "[31]": {"system": "Rattus norvegicus", "assay": "Memory enhancement effect in scopolamine-induced Wistar rat model of amnesia assessed as exploration time for familiar object in retention trial at 0.15 mg/kg, po for 7 days and measured on day 8 by novel object recognition test (reference value: 8.59 sec)", "type": "functional"}, "[32]": {"assay": "Metabolic stability in rat liver microsomes assessed as compound remaining at 1 uM preincubated for 5 mins followed by NADPH addition and measured after 30 mins by LC-MS/MS analysis", "type": "ADME, Microsome", "details": "read-out: Stability"}, "[33]": {"system": "Rattus norvegicus", "assay": "Memory enhancement effect in scopolamine-induced Wistar rat model of amnesia assessed as exploration time for object1 in acquisition trial at 0.05 mg/kg, po administered as single dose and measured on day 8 by novel object recognition test (reference value: 16.11 sec)", "type": "functional"}, "[34]": {"assay": "Drug metabolism in dog liver microsomes assessed as metabolic rate at 1 uM preincubated for 5 mins followed by NADPH addition after 30 mins by LC-MS/MS analysis", "type": "ADME, Canis lupus familiaris, Microsome", "details": "0.5 h"}, "[35]": {"assay": "Metabolic stability in monkey liver microsomes assessed as compound remaining at 1 uM preincubated for 5 mins followed by NADPH addition and measured after 30 mins by LC-MS/MS analysis", "type": "ADME, Macaca mulatta, Microsome", "details": "rhesus monkey, read-out: Stability"}}, "data": [{"smiles": "CCC(=O)c1sc(-c2ccc(Cl)cc2)c(C)c1-c1ccc(S(N)(=O)=O)cc1", "values": [{"measurement": "Activity", "setting": "[1]", "value": 44.4, "unit": "%"}, {"measurement": "concentration at 24 h", "setting": "[2]", "value": 740, "unit": "nM"}, {"measurement": "AUC(0-inf)", "setting": "[3]", "value": "261 to 24100", "unit": "ng·h/mL"}, {"measurement": "remaining at 0.5 h, 1 µM", "setting": "[4]", "value": 93, "unit": "%"}, {"measurement": "Time", "setting": "[5]", "value": 6.63, "unit": "s"}, {"measurement": "Time", "setting": "[6]", "value": 20.6, "unit": "s"}, {"measurement": "AUC(0-t)", "setting": "[7]", "value": 47, "unit": "µM·h"}, {"measurement": "fraction unbound at 16 h, 5 µM", "setting": "[8]", "value": 0.0031}, {"measurement": "Activity_index", "setting": "[9]", "value": 0.3}, {"measurement": "Activity_index", "setting": "[10]", "value": 0.45}, {"measurement": "Activity_index", "setting": "[11]", "value": 0.45}, {"measurement": "Drug metabolism", "setting": "[12]", "value": 0.01, "unit": "nmol/min/mg"}, {"measurement": "Kp uu at 1 h", "setting": "[13]", "value": 0.56}, {"measurement": "fold change (FC)", "setting": "[14]", "value": 22}, {"measurement": "Time", "setting": "[15]", "value": 13.41, "unit": "s"}, {"measurement": "Cmax", "setting": "[16]", "value": "25.1 to 1620", "unit": "ng/mL"}, {"measurement": "Time", "setting": "[17]", "value": 21.46, "unit": "s"}, {"measurement": "half-life", "setting": "[18]", "value": 45, "unit": "h"}, {"measurement": "Activity", "setting": "[19]", "value": 55.83, "unit": "%"}, {"measurement": "Drug metabolism", "setting": "[20]", "value": 0.01, "unit": "nmol/min/mg"}, {"measurement": "Activity_index", "setting": "[21]", "value": 0.56}, {"measurement": "Activity", "setting": "[22]", "value": 52.87, "unit": "%"}, {"measurement": "half-life", "setting": "[23]", "value": 22, "unit": "h"}, {"measurement": "Kp at 1 h", "setting": "[24]", "value": 4.63}, {"measurement": "Time", "setting": "[25]", "value": 12.8, "unit": "s"}, {"measurement": "Time", "setting": "[26]", "value": 12.42, "unit": "s"}, {"measurement": "Cmax", "setting": "[27]", "value": 900, "unit": "nM"}, {"measurement": "Activity_index", "setting": "[28]", "value": 0.38}, {"measurement": "concentration at 168 h", "setting": "[29]", "value": 2130, "unit": "nM"}, {"measurement": "concentration at 168 h", "setting": "[30]", "value": 250, "unit": "nM"}, {"measurement": "Time", "setting": "[31]", "value": 4.86, "unit": "s"}, {"measurement": "remaining at 0.5 h, 1 µM", "setting": "[32]", "value": 94, "unit": "%"}, {"measurement": "Time", "setting": "[33]", "value": 16.07, "unit": "s"}, {"measurement": "Drug metabolism", "setting": "[34]", "value": 0.01, "unit": "nmol/min/mg"}, {"measurement": "remaining at 0.5 h, 1 µM", "setting": "[35]", "value": 79, "unit": "%"}]}]}
